Counter-ions that a name gives are not always drawn.
The compounds below were run against T1, mGluR5 (Homo sapiens, UniProt P41594) (assay: inhibition of the glutamate induced elevation of intracellular Ca2+-concentration). Conditions: inhibition of glutamate induced elevation of intracellular Ca2+-concentration at a concentration of 10 μM.
T1 construct: expressed in transfected cells
Assay type: cell-based
From the text: This can be determined in vitro for example at recombinant human metabotropic glutamate receptors, especially PLC-coupled subtypes thereof such as mGluR5, using different procedures like, for example, measurement of the inhibition of the agonist induced elevation of intracellular Ca^2+ concentration in accordance with L. P. Daggett et al., Neuropharm.

T1 sequence (P41594 21-1180 isoform P41594-2 limits assumed): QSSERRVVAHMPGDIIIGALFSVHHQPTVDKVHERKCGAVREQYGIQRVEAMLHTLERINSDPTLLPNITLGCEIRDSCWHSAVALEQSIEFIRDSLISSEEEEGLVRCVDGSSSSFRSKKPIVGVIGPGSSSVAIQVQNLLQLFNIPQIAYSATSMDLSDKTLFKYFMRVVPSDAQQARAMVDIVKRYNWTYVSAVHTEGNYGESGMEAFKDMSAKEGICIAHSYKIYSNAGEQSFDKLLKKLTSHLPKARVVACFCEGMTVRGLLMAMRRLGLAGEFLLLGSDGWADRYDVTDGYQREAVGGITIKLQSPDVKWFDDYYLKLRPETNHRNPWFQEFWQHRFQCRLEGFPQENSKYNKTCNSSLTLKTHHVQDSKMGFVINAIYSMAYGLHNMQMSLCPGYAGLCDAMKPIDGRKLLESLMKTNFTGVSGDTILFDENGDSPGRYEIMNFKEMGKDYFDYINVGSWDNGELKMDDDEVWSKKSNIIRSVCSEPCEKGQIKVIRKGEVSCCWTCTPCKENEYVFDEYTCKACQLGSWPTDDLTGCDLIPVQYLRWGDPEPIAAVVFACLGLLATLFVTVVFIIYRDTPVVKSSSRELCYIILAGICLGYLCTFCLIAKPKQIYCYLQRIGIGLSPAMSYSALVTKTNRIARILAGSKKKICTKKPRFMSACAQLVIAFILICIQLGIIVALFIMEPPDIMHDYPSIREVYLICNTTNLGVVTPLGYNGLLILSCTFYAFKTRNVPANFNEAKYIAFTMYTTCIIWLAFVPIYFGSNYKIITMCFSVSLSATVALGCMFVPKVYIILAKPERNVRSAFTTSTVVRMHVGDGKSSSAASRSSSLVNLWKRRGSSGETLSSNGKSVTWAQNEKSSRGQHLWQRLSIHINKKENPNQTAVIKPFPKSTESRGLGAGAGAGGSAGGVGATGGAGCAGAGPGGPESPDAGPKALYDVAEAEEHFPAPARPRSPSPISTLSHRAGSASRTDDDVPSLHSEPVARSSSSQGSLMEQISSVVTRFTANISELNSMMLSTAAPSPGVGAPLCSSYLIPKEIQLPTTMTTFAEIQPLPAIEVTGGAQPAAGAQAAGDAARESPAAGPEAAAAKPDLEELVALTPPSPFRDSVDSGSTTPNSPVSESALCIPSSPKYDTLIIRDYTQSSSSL

| SMILES | mGluR5 Activity inh. at 10 μM [%] |
| --- | --- |
| Cc1ccc(Nc2ccc(C(=O)N3CCCC(C)C3)cn2)cc1 (centres unmarked) [Compound 1.13] | 96% |
| C[C@H]1CCCN(C(=O)c2ccc(Nc3ccc(Cl)cc3)nc2)C1 [Compound 1.12a, [6-(4-Chloro-phenylamino)-pyridin-3-yl]-(S-3-methyl-piperidin-1-yl)-methanone] | 99% |
| Cc1ccc(Nc2ccc(C(=O)N3CCC[C@H](C)C3)cn2)cn1 [Compound 4.13a, (S-3-Methyl-piperidin-1-yl)-[6-(6-methyl-pyridin-3-ylamino)-pyridin-3-yl]-methanone] | 97% |

More lines, now with the values ahead:

| mGluR5 Activity inh. at 10 μM [%] | SMILES |
| --- | --- |
| 97% | C/C=C\C1CCCCN1C(=O)c1cnc(Nc2ccc(C)nc2)c(Cl)c1 (centres unmarked) [Compound 4.56, [5-Chloro-6-(6-methyl-pyridin-3-ylamino)-pyridin-3-yl]-[((Z)-2-propenyl)-piperidin-1-yl]-methanone] |
| 85% | CCC[C@H]1CCCCN1C(=O)c1cnc(Nc2ccc(C)nc2)c(Cl)c1 [Compound 4.35, [5-Chloro-6-(6-methyl-pyridin-3-ylamino)-pyridin-3-yl]-((S)-2-propyl-piperidin-1-yl)-methasone] |
| 51% | O=C(c1ccc(Nc2ccc(Cl)cc2)nc1)N1C2CCC1CC(O)C2 (centres unmarked) [Compound 4.11, [6-(4-Chloro-phenylamino)-pyridin-3-yl]-(3-hydroxy-8-aza-bicyclo[3.2.1]oct-8-yl)-methasone] |
| 98% | Cc1ccc(Nc2ncc(C(=O)N3CCCC4CCCC43)cc2Cl)cn1 (centres unmarked) [Compound 4.25, [5-Chloro-6-(6-methyl-pyridin-3-ylamino)-pyridin-3-yl]-(octahydro-[1]pyrindin-1-yl)-methasone] |
| 97% | CCOCC1CCCCN1C(=O)c1cnc(Nc2ccc(C)nc2)c(Cl)c1 (centres unmarked) [Compound 4.60, [5-Chloro-6-(6-methyl-pyridin-3-ylamino)-pyridin-3-yl]-(2-thoxymethyl-piperidin-1-yl)-methanone] |
| 95% | CCC(CC)C1OCCCCN1C(=O)c1cnc(Nc2ccc(C)nc2)c(Cl)c1 (centres unmarked) [Compound 4.67] |

Same assay, conditions: read-out: mGluR5 Activity inh. at 10 μM [%]

| inhibition at 10 µM | SMILES |
| --- | --- |
| 57% | COc1ccc(Nc2ccc(C(=O)N3C[C@@H](C)O[C@@H](C)C3)cn2)cc1 [Compound 1.21, (cis-2,6-Dimethyl-morpholin-4-yl)-[6-(4-methoxy-phenylamino)-pyridin-3-yl]-methanone hydrochloride] |
| 93% | Cc1ccc(Nc2ncc(C(=O)N3CCC[C@@H]4CCC[C@@H]43)cc2Cl)cn1 [Compound 4.26, [5-Chloro-6-(6-methyl-pyridin-3-ylamino)-pyridin-3-yl]-(4aS,7aS)-octahydro-[1]pyrindin-1-yl-methanone] |
